Assays:
[1] = molecular target: T1, ornithine 4,5-aminomutase (OAM) (Acetoanaerobium sticklandii, UniProt E3PY95, E335Q); experiment: biochemical
T1 construct: gene oraE

[2] = molecular target: T2, ornithine 4,5-aminomutase (OAM) (Acetoanaerobium sticklandii, UniProt E3PY95, E335A); experiment: biochemical
T2 construct: gene oraE

[3] = molecular target: T3, ornithine 4,5-aminomutase (OAM) (Acetoanaerobium sticklandii, UniProt E3PY95, E335D); experiment: biochemical
T3 construct: gene oraE

[4] = molecular target: T4, ornithine 4,5-aminomutase (OAM) (Acetoanaerobium sticklandii, UniProt E3PY95); experiment: anaerobic coupled DAPDH assay, NADH at […] nm; type: biochemical; conditions: read-out: Ki(DAB)
T4 construct: gene oraE; recombinant, expressed from pET-OAMH2 vector and purified; holoenzyme with PLP and AdoCbl; Glu338 (TIM barrel) and Lys629 lie in OraE
T4 sequence (E3PY95 1-740): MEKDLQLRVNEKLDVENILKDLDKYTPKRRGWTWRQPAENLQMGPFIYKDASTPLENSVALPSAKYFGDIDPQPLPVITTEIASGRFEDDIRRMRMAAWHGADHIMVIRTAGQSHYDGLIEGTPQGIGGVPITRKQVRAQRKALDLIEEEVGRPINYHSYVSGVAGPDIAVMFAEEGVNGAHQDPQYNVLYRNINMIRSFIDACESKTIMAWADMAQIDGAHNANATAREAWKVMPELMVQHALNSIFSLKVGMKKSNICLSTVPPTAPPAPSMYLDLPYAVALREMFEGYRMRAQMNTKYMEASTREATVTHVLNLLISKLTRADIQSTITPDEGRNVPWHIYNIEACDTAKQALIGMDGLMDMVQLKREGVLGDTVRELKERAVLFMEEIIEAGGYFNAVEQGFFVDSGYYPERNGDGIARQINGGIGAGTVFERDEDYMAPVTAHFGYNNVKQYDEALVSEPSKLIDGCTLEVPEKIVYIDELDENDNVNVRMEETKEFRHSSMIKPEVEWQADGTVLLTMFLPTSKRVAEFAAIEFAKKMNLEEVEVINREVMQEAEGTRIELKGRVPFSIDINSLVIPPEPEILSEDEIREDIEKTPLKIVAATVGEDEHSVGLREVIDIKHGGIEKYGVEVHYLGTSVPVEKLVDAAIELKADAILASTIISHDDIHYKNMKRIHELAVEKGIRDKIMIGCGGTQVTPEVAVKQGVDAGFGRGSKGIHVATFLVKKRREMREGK
T4 sequence (E3PY96 1-121 partner): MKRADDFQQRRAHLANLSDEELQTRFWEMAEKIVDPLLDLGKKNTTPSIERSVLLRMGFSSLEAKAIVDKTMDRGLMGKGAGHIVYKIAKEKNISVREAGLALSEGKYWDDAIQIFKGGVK

With NCCC(N)C(=O)O (racemic) [D,L-2,4-diaminobutyric acid] the Ki [1] was 11.2 ± 0.1 µM, the Ki [2] was 18.8 ± 2.2 µM and the Ki [3] was 15.2 ± 1.5 µM. It also gave a Ki [4] of 5.2 ± 0.1 µM.

Reference: PMC4413051, “Glutamate 338 is an electrostatic facilitator of C–Co bond breakage in a dynamic/electrostatic model of catalysis by ornithine aminomutase” (The Febs Journal, 2015)
